Experimental data from a melting point compilation (Tetko et al.; mined from patent text by program, amines drawn as free bases though some values may be those of a salt).

| melting point [°C] | Compound |
| --- | --- |
| 143 to 151 | CCN1CCNC(=O)c2ccc(Nc3ncc(Cl)c(Nc4ccccc4-c4nccn4C)n3)cc21 |
| 110 to 112 | O=C(NCCCCCn1ccnc1)c1ccc(Cl)nc1 |
| 148 to 150 | CCOC(=O)C(Cc1ccccc1)NC(=O)COc1ccc(C2=NNC(=O)NC2)cc1C (centres undefined) |
| 85.3 to 88.3 | NC(=O)CC(=O)NCCCOc1cccc(CN2CCCCC2)c1 |
| 58 to 65 | COc1ccc(S(=O)(=O)C(CCCCCc2ccc(Cl)cc2)C(=O)O)cc1 (centres undefined) |
| 97 to 98 | Cc1ccnc2c1C(=O)CC(c1ccccc1Cl)C2 (centres undefined) |
| 200 to 202 | CC(=O)NC[C@H]1CN(c2ccc(-c3noc(C#N)n3)c(F)c2)C(=O)O1 |
| 125 to 126 | CC(C)c1nn(-c2ccc(C(F)(F)F)cn2)cc1CCCCOc1ccccc1CC(=O)O |
| 162 to 163 | Cn1ncc2c(c1=O)S(=O)CCNC2Cc1ccccc1 (centres undefined) |
| 178 to 184 | CC1(C)CN=C2C(=O)c3cc(C#N)ccc3N2C1 |
| 238 to 239 | CS(=O)c1ccc(C(=O)O)cc1[N+](=O)[O-] (centres undefined) |
| 169 to 172 | O=C(Nc1nc(=O)n(S(=O)(=O)c2ccc(Cl)cc2)cc1F)c1ccc(Cl)cc1 |
| 59 to 60 | CN1CCc2cc3ccccc3n2CC1 |
| 169 to 171 | O=C(NCc1ccn(-c2cc3nc(C(=O)O)c(=O)[nH]c3cc2C(F)(F)F)c1)Nc1cccc(F)c1 |
| > 250 | O=C(O)c1ccc(OC(F)F)c2oc3ccncc3c12 |
| 142 to 149 | COC(=O)[C@H](C)NC(=O)CCn1cc(C2=C(c3cn(C)c4ccccc34)C(=O)NC2=O)c2ccccc21 |
| 133 to 134 | CCOC(=O)CN1C(=O)C2(COc3cc(F)c(F)cc32)c2c(Br)cccc21 (centres undefined) |
| 167 to 170 | CC(=O)CN1CCc2c(c(=O)oc3cc4c(cc23)OCO4)C1 |
| 201 to 203 | O=C(Nc1nccs1)C1CSc2sccc2C1=O (centres undefined) |
| 68 to 70 | CC1(C)OC(C=Cc2cccnc2)=CC1=O |
| > 290 | O=C(O)c1n[nH]c2cc(F)ccc12 |
| 128 to 130 | CSc1nc(O)nn1C |
| 116 to 117 | COc1c(Cl)ccnc1C(=O)O |
| 149 to 150 | CNC(=O)N(O)C(C)c1cc2ccccc2s1 (centres undefined) |

| melting point [°C] | Compound |
| --- | --- |
| 153 | Cc1nc(N)sc1S(=O)(=O)NCCN(C)C |
| 186 | O=[N+]([O-])c1ccc(N2CCN(CCCN3c4cccc5cccc(c45)S3(=O)=O)CC2)cc1 |
| 164 to 166 | S=C(Nc1ccc(Cl)cc1)NC1C2CC3C(C2)C31 (centres undefined) |
| 71 | CCOc1ccc(CC(=O)NCCc2ccc(OC(C)C)c(OC(C)C)c2)cc1OCC |
| 200 to 203 | COC(=O)c1ccc(Cn2c(=O)c3cc(C(=O)NCc4cccc(OC)c4)sc3n(C)c2=O)cc1OC |
| 84 to 86 | O=S(=O)(Nc1ccc(C(F)(F)F)cc1I)c1ccccc1 |
| 145 to 148 | COc1ccc(C(=O)Nc2ccccc2)c(C(=O)Cc2ccccn2)c1 |
| 132 to 135 | O=C(O)CCNc1ccc(-c2ccc3nnn(Cc4ccc5ncccc5c4)c3n2)cc1F |
| 205 to 206 | c1ccc2c(-c3nnn[nH]3)cccc2c1 |
| 102 to 105 | CCC12CCC3=C(CCc4cc(OC)ccc43)C1CCC2O (centres undefined) |
| 47 | COc1ccc(C(F)(F)C(F)(F)F)cc1C(C)=O |
| 37 to 38 | CCOC(=O)Cc1nc(-c2ccccc2)oc1C(C)C |
| 110 to 111 | CCOC(=O)C(CCCCCc1ccc(Cl)cc1)C(N)=O (centres undefined) |
| 261 | CC(C)(C)NS(=O)(=O)c1cnc(-c2cn(-c3nc(-c4ccc(Cl)cc4)cc(C(F)(F)F)n3)cn2)s1 |
| > 250 | Cc1cc(NCc2ccc3oc(-c4ccccc4-c4nnn[nH]4)c(Br)c3c2)n2nccc2n1 |
| 185 to 187 | CNC(=O)C1(CCC#N)c2ccccc2-c2ccccc21 |
| 231 to 237 | O=C1COc2cc3[nH]c(C(=O)O)cc3cc2N1 |
| 173 to 175 | CCOC(=O)c1ccc(CNC(N)=O)cc1 |
| 254 to 256 | CCN1C(=O)CCCc2cc(Nc3ncc(Cl)c(Nc4c(F)cccc4C(=O)NC)n3)c(OC)cc21 |
| 182 | NC(=O)Cc1cn(-c2ccccc2)nc1-c1ccc(Cl)cc1 |
| 142 to 143 | COC(=O)CC(=O)c1nccn1C |
| 116 to 118 | C[C@H](NC(=O)c1c(CN2CCNCC2)c(-c2ccccc2)nc2ccccc12)C1CCCCC1 |
| 148 to 149 | CNC1CN(C(=O)Nc2ccc(C(F)(F)F)cc2)N=C1c1ccc(Cl)cc1 (centres undefined) |
| 230 to 232 | COc1cc(-c2cnc3[nH]cc(I)c3n2)cc(OC)c1OC |

| melting point [°C] | Compound |
| --- | --- |
| 169 to 172 | CC1(C)CC2(CC(C)(C)N1c1nc(Cl)nc(Cl)n1)OCCO2 |
| 79 | CC(=O)SCC(=Cc1ccc(Oc2ccccc2)cc1)C(=O)NCCC(=O)OCc1ccccc1 |
| 117 to 118 | O=C(c1ccc(Cl)cc1)c1ccc([N+](=O)[O-])cc1Cl |
| 156 to 158 | COc1ccc(-n2nc(Cl)cc2-c2ccc(OCCNC(N)=O)cc2)cn1 |
| 130 to 133 | Fc1cc2c(c(-c3c(Cl)cccc3Cl)c1)OC(CNCC1CC1)C2 (centres undefined) |
| 61 to 65 | O=C(O)[C@@H]1O[C@@H](c2ccccc2)N(NS(=O)(=O)c2ccc([N+](=O)[O-])cc2)[C@H]1c1ccccc1 |
| 154 to 155 | CN(C)CCn1c2c(c3ccccc31)CCS(=O)(=O)CCC2 |
| 154 to 155 | C=CC[C@H]1C[C@@](OS(C)(=O)=O)(C(=O)OC)C[C@@H](OC(=O)c2ccccc2)[C@@H]1OS(C)(=O)=O |
| 156 to 157 | CSc1ccc(COc2cc(S(=O)(=O)C(C)C)cc(C#N)c2N)nc1 |
| 101 to 102 | Cc1nc(-c2ccc(-c3ccc(C(=O)Nc4cc(OCCN(C)C)ccc4Cl)cc3)c(C)c2)no1 |
| 149 to 150 | COc1ccc2c(c1)C(=O)c1c-2c(Cl)nc2ccc(F)cc12 |
| 104 to 106 | CCCN(CCC)C(=O)CCn1c(-c2ccc(Cl)cc2)nc2cccnc21 |
| 64 to 65 | CC1=C(Cc2ccc(OC(F)(F)F)cc2)C(=O)c2ccccc2C1=O |
| 142 | CC(C)(c1cc(Cl)ccc1O)c1cc(Cl)ccc1O |
| 184 | COc1cc(N)c(Cl)cc1-c1nn(C2CCN(CCc3ccccc3)CC2)c(=O)o1 |
| 168 to 170 | CCCn1nc2c(N)nc3ccccc3c2c1NCCC1CCN(C(=O)NC(C)C)CC1 |
| 191 | CCOC(=O)C1=C(N)NC(N)=C(C(=O)OCC)C1c1ccccc1C(F)(F)F |
| 168 to 170 | O=C(O)Cc1ccc(C(=O)c2ccccc2)cc1[N+](=O)[O-] |
| 79 to 80 | c1ccc2c(c1)COC2=N[C@@H]1CCc2ccccc21 |
| 208 to 210 | O=C(O)COc1ccccc1-c1ccc(Cl)c(C(=O)NCC23CC4CC(CC(C4)C2)C3)c1 |
| 58 to 59 | CC(C(=O)n1c(=O)oc2ccccc21)C1(O)CCCCC1 (centres undefined) |
| 175 | Cc1cccc(NC(=O)NCC(=O)N(c2ccccc2)C(C(=O)OC(C)(C)C)C(=O)OC(C)(C)C)c1 |
| 198 | O=C(NC(Cc1ccc(OCc2ccc(C(F)(F)F)cc2)cc1)C(=O)O)c1cc2cc(-c3ccc(Cl)cc3)ccc2s1 (centres undefined) |
| 157 to 162 | O=S(=O)(c1ccc(OCCO)cc1)C(Br)(Br)Br |

| melting point [°C] | Compound |
| --- | --- |
| 89 to 90 | CC1=NN(CC2CC2)CC2=C3C1=NN(c1ccc(C(C)C)cc1Br)C(=O)N3CC2 |
| 193 to 200 | CN1CCC2(CC1)OC(c1ccccc1)c1cc(O)ccc12 (centres undefined) |
| 120 to 122 | CCC(CC)C(=O)OC1CC(C)C=C2C=CC(C)C(CCC3CC(O)CC(=O)O3)C21 (centres undefined) |
| 90 to 93 | CCOC(=O)N1CCN(c2nc(N(C(C)=O)C3CC3)ccc2[N+](=O)[O-])CC1 |
| 105 to 107 | O=C1NC(=O)C(c2cn3c4c(cccc24)CCC3)C1c1ccc(O)cc1 (centres undefined) |
| 174 to 175 | COc1cc(OC)nc(NC(=O)N=NS(=O)(=O)C2OCCN2C)n1 (centres undefined) |
| 66 to 70 | C[C@H](C(=O)O)c1ccc2cc(OCCCCCCc3cccc(OCc4ccccc4)c3OCc3ccccc3)ccc2c1 |
| 66 to 67 | CCOC(=O)Cc1nc2ccccc2n1C |
| 148 to 149 | Cc1cc(=O)c(C(=O)Nc2ccccc2)c(C)o1 |
| 307 to 308 | COc1ccc(/C(C)=C/c2ccc(C(=O)O)cc2)cc1C12CC3CC(CC(C3)C1)C2 |
| 148 to 151 | CCCc1nc2c(N)nc3ccccc3c2n1CCOCCCS(C)=O (centres undefined) |
| > 300 | Cn1cc2c(nc(NC(=O)Nc3ccc(CC(=O)O)cc3)n3nc(-c4ccco4)nc23)n1 |
| 87 | Cc1ccc(Cc2ccc(-c3ccccc3)cc2)cc1 |
| 188 to 189 | O=C(Nc1cccnc1)N1CCc2cc(C(F)(F)F)ccc21 |
| 196 to 198 | CCOC(=O)N1CCN(c2nnc(N)[nH]2)CC1 |
| 230 | CCn1cc(C(=O)O)c(=O)c2cc(F)c(N3CCNC(c4c[nH]c5ccccc45)C3)cc21 (centres undefined) |
| 54 to 55 | CCCCCCCCCCCCCCCCCCSc1ccc(C)cc1 |
| 258 to 260 | CCCCC1Cc2c(c3cccnc3n(-c3ccc(F)cc3)c2=O)O1 (centres undefined) |
| 98 to 99 | O=C1OC(CCO)C(O)=C1OCc1ccccc1 (centres undefined) |
| 191 to 193 | CCOC(=O)c1cnc2c(SSc3ccccc3[N+](=O)[O-])cccn2c1=O |
| 85 | COc1nc(NCCCN2CCOCC2)nc(OC)c1NC(=O)c1coc(Oc2cccc(C(C)(C)C)c2)n1 |
| 208 to 209 | CCc1cn(C2CC(O)C(CNC(=O)C(C)S(=O)c3ccc(Cl)cc3Cl)O2)c(=O)[nH]c1=O (mixture of isomers) |

| Compound | melting point [°C] |
| --- | --- |
| CN1[C@H]2CC[C@@H]1[C@H](c1nc(-c3ccncc3)no1)[C@@H](c1ccc3c(c1)OCO3)C2 | 110 to 112 |
| CN1C(=O)[C@H](NC(=O)CCC2CCCCC2)[N+]([O-])=C(c2ccccc2)c2ccccc21 | 222 to 224 |
| Cc1cc(O)cc2c1C(C)(C)CC2(C)C | 120 |
| Cc1cccc(NC(=O)NC2N=C(c3ccccc3F)c3ccccc3N(Cc3ccccn3)C2=O)c1 (racemic) | 215 to 216 |
| NCc1nnc2n1-c1ccc(Cl)cc1C(c1ccccc1)=NC2 | 168 to 172 |
